The nature of the assay: Inhibition of CD2 assessed as inhibition of CD2-CD58 protein-protein interaction mediated cell adhesion between CD58 expressing sheep red blood cells and CD2 expressing human Jurkat cells by E-rosettes assay.

*1 amine or outer side, *2 acyl side, *3 side chain or, on linkers, in order; H or OH if unused. Where a SMILES comes first, the peptide text is derived from it. [ ]: non-standard residue; d: D form. X1 = O=C(CCc1cccc2c1oc1c(CCN[*:1])cccc12)[*:2]

Broadly, the IC50 is the concentration that inhibits the measured activity by half.

With `CC[C@H](C)[C@@H]1NC(=O)[C@H](Cc2ccc(O)cc2)NC(=O)[C@H](CC(=O)O)NC(=O)CCc2cccc3c2Oc2c(cccc2-3)CCNC(=O)[C@H](CC(=O)O)NC(=O)[C@H](CC(=O)O)NC(=O)[C@H](CCCCN)NC1=O` (cyclo(DD[X1]DYIK)), the 50% inhibitory concentration (IC50) was 25.7 nM.

For the origin of these results see BindingDB's records for doi:10.1021/jm200004e (University of Louisiana At Monroe, 2011).
